Assay results published in patent US7947854B2, “Bis-cationic compounds and use thereof” (The University of Sydney, priority 2003, dated 2011).
In brackets after ≈: the same amount, converted by molar mass.

Key:
Assay in all cases: In vitro antibacterial activity, NCCLS M7-A6
Type in all cases: cell-based
Escherichia coli 25922 = tested on: Escherichia coli 25922
Method: (§1) Two bis-cationic compounds were tested for antibacterial activity. The assay used was that published by the National Committee for Clinical Laboratory Standards. 2003. Methods for Dilution Antimicrobial Susceptibility Tests for Bacteria That Grow Aerobically: Approved Standard—Sixth Edition. NCCLS document M7-A6. Villanova, Pa., USA.

[1] = tested on: Staphylococcus aureus 25923
Method: as §1

[2] = tested on: Streptococcus pneumonia 49619; details: Streptococcus pneumoniae
Method: as §1

[3] = tested on: MRSA (methicillin resistant S. aureus); details: Staphylococcus aureus, read-out: MIC MRSA (methicillin resistant S. aureus)
Method: as §1

SMILES | MIC (Escherichia coli 25922) [µg/mL] | MIC [1] [µg/mL] | MIC [2] [µg/mL] | MIC [3] [µg/mL]
CC1(C)S[C@@H]2[C@H](NC(=O)[C@H](N)c3ccc(O)cc3)C(=O)N2[C@H]1C(=O)O [amoxicillin, reference compound] | 8 to 16 (≈ 21.9 to 43.8 µM) | 0.25 to 0.5 (≈ 0.684 to 1.37 µM) | 0.06 to 0.12 (≈ 0.164 to 0.328 µM) | –
CN[C@H](CC(C)C)C(=O)N[C@H]1C(=O)N[C@@H](CC(N)=O)C(=O)N[C@H]2C(=O)N[C@H]3C(=O)N[C@H](C(=O)N[C@H](C(=O)O)c4cc(O)cc(O)c4-c4cc3ccc4O)[C@H](O)c3ccc(c(Cl)c3)Oc3cc2cc(c3O[C@@H]2O[C@H](CO)[C@@H](O)[C@H](O)[C@H]2O[C@H]2C[C@](C)(N)[C@H](O)[C@H](C)O2)Oc2ccc(cc2Cl)[C@H]1O [vancomycin, reference compound] | – | – | – | 1 (≈ 0.69 µM)
